Measured values from patent publication US20080108894A1, “Methods and Systems of Analyzing Clinical Parameters and Methods of Producing Visual Images” (priority 2004, published 2008).
“Also recorded” adds a separate entry of the source.

Legend:
infarcted myocardium [1] = experiment: R1 mapping with SI0 map 20 minutes after Gd(DTPA) in dogs 48 h after reperfusion of myocardial infarction; type: in vivo, dog
Experimental: In three dogs (n=3), weighing 18-20 kg, myocardial infarctions (MI) were generated by a 180-minute closed-chest coronary artery occlusion. Forty-eight hours following reperfusion, baseline R10 map and SI0-map (see below) were generated using the inversion-recovery (IR) technique with multiple inversion times (TI) (FIG. 6). Delayed-Enhancement (DE) imaging was carried out exactly 15 minutes after Gd(DTPA) (0.2 mmol/kg) administration. Baseline parametric R10 maps, and corresponding SI0 maps, that cover the left ventricle (LV), in a dog 48 h after myocardial infarction, are shown in FIG. 6. R1 was calculated from the SI vs. TI dependence as detailed herein. The calculated baseline relaxation rate of myocardium was R10=1.03±0.05 s^−1, which was later used for calculating the PIM. For the purpose of generating PIMs, 20 minutes after the administration of Gd(DTPA), high resolution images of the entire heart were acquired with two TIs using the same image localizations and sequence parameters (except the TI) as for the baseline R10 and SI0 maps. Details of selecting the optimum TIs are discussed further below. From these images and from the corresponding SI0 maps, voxel-by-voxel R1 maps were generated. Average R1 values in remote myocardium and infarct core were R1=1.73±0.07 s^−1, and R1=3.22±0.09 s^−1, respectively. R1 in LV chamber blood was R1=2.53±0.05 s^−1. ΔR1 (ΔR1=R1−R10) was calculated automatically for each voxel utilizing the baseline R10 map. Average ΔR1r in the remote viable regions was 0.7±0.07 s^−1, while in the center of the infarct (denoted 100% infarcted) ΔR1c was 2.19±0.09 s^−1. The contribution of any contrast-agent-accumulating infarct islet contributes to the total ΔR1 of that voxel. Therefore, ΔR1 is proportional to the amount of non-viable tissue present in any given voxel. Thus, a percent infarct (PI) scale was created, where the core ΔR1c (maximum R1 enhancement observed in the center of the infarct) was considered 100% whereas the ΔR1r of remote areas was 0%. In the canine model used in the present disclosure, the myocardial infarct was generated by prolonged proximal occlusion of the Left Anterior Descending coronary artery, using an intracoronary balloon catheter. Animals were anesthetized and mechanically ventilated during MRI sessions (using isoflurane). A 1.5 Tesla GE Signa Horizon “Cardiac CV” instrument was used for cardiac MRI. Images were generated in standard consecutive short-axis planes (6 slices covering the entire LV) and one additional three-chamber long-axis view to assess the apex (left ventricular outflow tract view).

infarcted myocardium [2] = experiment: R1 mapping (inversion recovery MRI) 24 h and 48 h after PCA in canine reperfused myocardial infarction; type: in vivo, dog; details: for Average R1r (R1 in remote regions) / Average ΔR1r (ΔR1 in remote regions): remote myocardium
From the text: In FIG. 2, multislice voxel-by-voxel R1 maps (A) and PIMs (B), generated from such images, are shown. The good quality and coregistration of images acquired with varying TI, was confirmed by the R^2 values obtained for the pixel-by-pixel curve-fitting applied to the SI vs. TI dependence. Average R^2 in the myocardium was 0.99±0.005.
Average R10 was 0.98±0.05 s^−1, in agreement with other investigators' findings. […] This proves Gd(ABE-DTTA) to be a PCA suitable for multi-T1 R1 mapping.
In the canine model used in the present disclosure, the myocardial infarct was generated by prolonged proximal occlusion of the Left Anterior Descending coronary artery, using an intracoronary balloon catheter. Animals were anesthetized and mechanically ventilated during MRI sessions (using isoflurane).
A 1.5 Tesla GE Signa Horizon “Cardiac CV” instrument was used for cardiac MRI. Images were generated in standard consecutive short-axis planes (6 slices covering the entire LV) and one additional three-chamber long-axis view to assess the apex (left ventricular outflow tract view).
A 180°-prepared, segmented, fast gradient-echo sequence, was used to determine R1 values of the myocardium using the inversion recovery method. Short axis and long axis images were generated using the following parameters: FOV 300 mm, image matrix 256×256, slice thickness 10 mm, read out flip angle 25°, echo time (TE) 3.32 ms, repetition time (TRp) 7.18 ms, and recycle time (TR) 1200-2000 ms (three R-R intervals, depending on heart rate, but constant throughout an entire given R1 mapping procedure). Inversion times (TI) in the range of 200-1200 ms were used. In theory, 6 different TIs should be sufficient to generate a R1 map. In this disclosure, however, 8-10 TIs were used to ensure accuracy of R1 determination. The R1 values were calculated from the SI vs. TI dependence, applying a three-parameter least-squares curve fitting routine, using the following formula: […]
Since all MRI parameters below reflect the entire volume element in the slice, associated with a given pixel, from this point on the term voxel, rather than pixel, will be used.). The relaxation rate R1 (R1≡1/T1) of each voxel was composed of R10, the myocardial R1 observed in the absence of both infarct and PCA, and ΔR1, the contribution of the PCA present in the voxel:
Using Eq. 2, the R1 map was transformed into a ΔR1 map. The average ΔR1r value of areas remote from the infarct zone (about 600 voxels), was considered representative of 0% infarction.
As a threshold, ΔR1v of all remote voxels where R1v<R1r+2SD, was set to zero.

[3] = 20 minutes after Gd(DTPA) 0.2 mmol/kg
[4] = 20 minutes after Gd(DTPA), ΔR1=R1−R10

Molecule	Average R1 in infarct core (infarcted myocardium [1]; [3])	Average R1 in remote myocardium (infarcted myocardium [1]; [3])	R1 in LV chamber blood (infarcted myocardium [1]; [3])	Average ΔR1r in the remote viable regions (infarcted myocardium [1]; [4])	ΔR1c in the center of the infarct (denoted 100% infarcted) (infarcted myocardium [1]; [4])	Average R1c (R1 in infarct core) (infarcted myocardium [2]; 24 h after PCA)	Average ΔR1c (ΔR1 in infarct core) (infarcted myocardium [2]; 24 h after PCA)	Average R1r (R1 in remote regions) (infarcted myocardium [2]; 24 h after PCA)	Average ΔR1r (ΔR1 in remote regions) (infarcted myocardium [2]; 24 h after PCA)	Average R1c (R1 in infarct core) (infarcted myocardium [2]; 48 h after PCA)	Average ΔR1c (ΔR1 in infarct core) (infarcted myocardium [2]; 48 h after PCA)	Average R1r (R1 in remote regions) (infarcted myocardium [2]; 48 h after PCA)	Average ΔR1r (ΔR1 in remote regions) (infarcted myocardium [2]; 48 h after PCA)	hourly change in R1 in all myocardial areas (infarcted myocardium [2]; between 24 and 48 hours post PCA)	persistence of ΔR1 / agent in the infarct (infarcted myocardium [2]; infarct region, after a single administration)	hourly change in R1 (infarcted myocardium [2]; viable tissue, between 24 and 48 hours post PCA, interpolated)	rate of decay in the infarct (infarcted myocardium [2]; within the acquisition time frame of about 30-40 minutes)
O=C([O-])CN(CCN(CC(=O)[O-])CC(=O)O)CCN(CC(=O)[O-])CC(=O)O.[Gd+3] [Gd(DTPA)]	3.22 ± 0.09 s⁻¹	1.73 ± 0.07 s⁻¹	2.53 ± 0.05 s⁻¹	0.7 ± 0.07 s⁻¹	2.19 ± 0.09 s⁻¹												
Gd(ABE-DTTA)						2.33 ± 0.5 s⁻¹	1.21 ± 0.5 s⁻¹	1.23 ± 0.06 s⁻¹	0.26 ± 0.03 s⁻¹	2.31 ± 0.4 s⁻¹	1.27 ± 0.3 s⁻¹	1.15 ± 0.08 s⁻¹	0.18 ± 0.05 s⁻¹	less than one percent of the measured R1	observable throughout the first week from administration; also recorded: still observable in the infarct region one week after administration	0.26±0.1 percent/hour	less than 1 % of R1
